Laboratory results taken from article PMC9317966, “Structure-function analysis of the AMPK activator SC4 and identification of a potent pan AMPK activator” (Biochemical Journal, 2022).

How the values were obtained:
[1] = system: rodent and non-human primate models of T2DM; set-up: method as in PMID 28705990; conditions: cited from earlier work
[2] = target: T1, human GST-AMPK α2β1γ1 (Homo sapiens, UniProt P54646+Q9Y478); experiment: Radiolabel SAMS kinase assay, GST-AMPK from HEK293T/17 cells immobilised on glutathione-Sepharose; format: biochemical; conditions: 1 µM compound
T1 construct: triply transfected with full-length AMPK α1 or α2 (NH2-terminal GST fusion, pDEST27 vector); full-length AMPK α1 or α2 (NH2-terminal GST fusion, pDEST27 vector), β1 or β2 (COOH-terminal FLAG fusion, pcDNA3.1 vector); FLAG (C); made in house; host or cells: HEK293T/17 cells, transient triple transfection
T1 sequence (P54646 whole entry, the tested form may be a part): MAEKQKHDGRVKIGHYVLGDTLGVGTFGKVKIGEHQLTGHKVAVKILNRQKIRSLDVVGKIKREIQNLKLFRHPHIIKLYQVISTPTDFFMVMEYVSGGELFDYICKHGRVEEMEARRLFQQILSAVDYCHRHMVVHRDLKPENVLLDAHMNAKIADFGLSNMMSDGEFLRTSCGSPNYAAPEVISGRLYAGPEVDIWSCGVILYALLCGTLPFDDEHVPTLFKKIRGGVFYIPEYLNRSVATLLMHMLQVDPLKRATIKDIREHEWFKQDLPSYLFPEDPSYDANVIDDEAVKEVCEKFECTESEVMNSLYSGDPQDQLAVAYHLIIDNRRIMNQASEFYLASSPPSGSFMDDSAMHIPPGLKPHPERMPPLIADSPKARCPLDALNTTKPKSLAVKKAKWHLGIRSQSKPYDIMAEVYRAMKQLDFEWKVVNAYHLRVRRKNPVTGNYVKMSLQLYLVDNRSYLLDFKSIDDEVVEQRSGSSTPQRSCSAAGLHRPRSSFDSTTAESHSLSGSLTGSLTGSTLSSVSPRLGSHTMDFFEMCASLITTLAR
T1 sequence (Q9Y478 whole entry, the tested form may be a part): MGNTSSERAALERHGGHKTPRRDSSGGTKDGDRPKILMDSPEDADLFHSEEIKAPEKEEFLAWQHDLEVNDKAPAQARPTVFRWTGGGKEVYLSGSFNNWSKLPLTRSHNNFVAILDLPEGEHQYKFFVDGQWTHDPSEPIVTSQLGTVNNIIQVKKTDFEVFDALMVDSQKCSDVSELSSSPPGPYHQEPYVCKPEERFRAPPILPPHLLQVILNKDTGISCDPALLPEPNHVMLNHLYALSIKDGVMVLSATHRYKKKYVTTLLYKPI
T1 sequence (P54619 whole entry partner, the tested form may be a part): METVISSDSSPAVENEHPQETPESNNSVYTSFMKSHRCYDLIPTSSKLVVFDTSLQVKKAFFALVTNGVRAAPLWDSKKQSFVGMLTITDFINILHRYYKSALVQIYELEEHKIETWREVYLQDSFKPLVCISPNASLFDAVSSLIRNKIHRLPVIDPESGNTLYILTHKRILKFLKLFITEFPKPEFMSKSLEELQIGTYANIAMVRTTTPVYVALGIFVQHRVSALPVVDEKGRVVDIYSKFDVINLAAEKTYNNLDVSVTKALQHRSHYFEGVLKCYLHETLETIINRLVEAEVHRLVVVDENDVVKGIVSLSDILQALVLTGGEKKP
Excerpt: (§1) We generated a series of compounds to investigate whether modification of the SC4 2-hydroxybiphenyl LHS fragment affects isoform selectivity, some of which (MSG008-MSG011) are presented in Table 1. We also synthesised compound MSG012 (example I-3-54 [32]), which was reported to activate α2β2γ1 with ∼100-fold greater potency compared with α1β1γ1. MSG012 differs from SC4 by substitution of the 2-hydroxyphenyl LHS fragment with 3-cyclohexen-4-yl-1-carboxylic acid, and 2-methylbenzoic acid RHS fragment with 1-hydroxy-N,N-dimethylcyclohexan-4-yl-1-carboxamide. Our initial screen involved measuring the activity of recombinant human GST-AMPK complexes expressed in HEK293T/17 cells and immobilised on glutathione-Sepharose (Supplementary Figure S1). Enzyme activity was measured by radiolabelling the synthetic SAMS peptide substrate in the absence or presence of 1 µM compound. Consistent with our previous characterisation, SC4 activated α1β1γ1, α2β1γ1 and α2β2γ1 >2.3-fold, and weakly activated α1β2γ1 1.3-fold (Figure 1A). […] The γ isoform had little influence on AMPK activation by MSG011 as most γ2 and γ3 complexes were activated >2.2-fold at 1 µM, with α1β2γ2 being the only exception (1.6-fold activation). […] Accordingly, MSG010, MSG011 and MSG012 can be classified as pan AMPK activators.
(§2) Adherent HEK293T/17 cells at ∼50% confluency were triply transfected with full-length AMPK α1 or α2 (NH2-terminal GST fusion, pDEST27 vector), β1 or β2 (COOH-terminal FLAG fusion, pcDNA3.1 vector), and γ1, γ2 or γ3 (NH2-terminal HA fusion, pMT2 vector) in the presence of FuGENE HD transfection reagent (Promega) as per the manufacturers protocol. Cells were harvested 48 hours post-transfection by first gently washing in ice cold phosphate buffered saline (PBS; Sigma–Aldrich), then scraping in ice cold lysis buffer (50 mM TRIS pH 7.5, 150 mM NaCl, 10% (v/v) glycerol, 50 mM NaF, 5 mM sodium pyrophosphate, 1% (v/v) Triton X-100, cOmplete protease inhibitor cocktail). Lysates were clarified by centrifugation (16 000g, 3 min, 4°C), flash frozen in liquid N2 and stored at −80°C until analysis. For radioactive kinase assays, AMPK was immobilised on glutathione Sepharose 4B resin (GE Healthcare) by incubation with lysates for 1.5 h at 4°C. Following centrifugation (1000g, 3 min, 4°C), the resin was washed twice in purification buffer (50 mM HEPES pH 7.4, 150 mM NaCl, 10% (v/v) glycerol, 0.02% (v/v) Tween-20), once in 50 mM HEPES pH 7.4 with 0.02% (v/v) Tween-20, then resuspended to a 50% slurry with 50 mM HEPES pH 7.4 and 10 µl added to the activity assays. For in solution kinase assays, α1β1γ1 AMPK was eluted from glutathione-Sepharose by incubating with purification buffer supplemented with 40 mM reduced glutathione (Sigma–Aldrich).
(§3) AMPK activity was determined by phosphorylation of the SAMS peptide (Purar Chemicals, sequence: NH2-HMRSAMSGLHLVKRR-COOH) in a 25 µl reaction volume containing 100 µM SAMS peptide, 5 mM MgCl2, 200 µM ATP, [γ-^32P]-ATP (PerkinElmer) and assay buffer (50 mM HEPES pH 7.4, 1 mM DTT and 0.02% (v/v) Tween-20) and purified AMPK. Phosphotransferase activity was conducted at 30°C for 10 min and reactions were quenched by spotting 15 µl onto phosphocellulose ion-exchange chromatography paper (made in-house), followed by repeated washes in 1% H3PO4 (Merck Millipore). Ultima Gold liquid scintillation fluid (5 ml; PerkinElmer) was added to vials containing dried phosphocellulose papers, and the level of ^32P-transfer to the SAMS peptide was determined using a Tri-Carb 2900TR liquid scintillation counter (PerkinElmer).

[3] = target: T2, human GST-AMPK α2β2γ1 (Homo sapiens, UniProt O43741+P54646); experiment: as above; format: biochemical; conditions: 1 µM compound
T2 construct: triply transfected with full-length AMPK α1 or α2 (NH2-terminal GST fusion, pDEST27 vector); full-length AMPK α1 or α2 (NH2-terminal GST fusion, pDEST27 vector), β1 or β2 (COOH-terminal FLAG fusion, pcDNA3.1 vector); FLAG (C); made in house; host or cells: HEK293T/17 cells, transient triple transfection
T2 sequence (P54646 whole entry, the tested form may be a part): as the sequence (P54646 whole entry, the tested form may be a part) above
T2 sequence (O43741 whole entry, the tested form may be a part): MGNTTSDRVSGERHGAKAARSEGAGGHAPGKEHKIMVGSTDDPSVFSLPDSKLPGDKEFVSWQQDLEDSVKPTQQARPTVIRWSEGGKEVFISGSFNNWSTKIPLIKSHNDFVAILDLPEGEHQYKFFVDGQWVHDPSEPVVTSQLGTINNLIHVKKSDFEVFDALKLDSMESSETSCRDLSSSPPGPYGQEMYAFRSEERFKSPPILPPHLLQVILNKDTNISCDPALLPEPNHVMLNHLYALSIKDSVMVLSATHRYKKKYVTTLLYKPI
T2 sequence (P54619 whole entry partner, the tested form may be a part): as the sequence (P54619 whole entry partner, the tested form may be a part) above
Excerpt: as §1, §2, §3

[4] = target: T3, human GST-AMPK α1β2γ1 (Homo sapiens, UniProt O43741+Q13131); experiment: as above; format: biochemical; conditions: 1 µM compound
T3 construct: triply transfected with full-length AMPK α1 or α2 (NH2-terminal GST fusion, pDEST27 vector); full-length AMPK α1 or α2 (NH2-terminal GST fusion, pDEST27 vector), β1 or β2 (COOH-terminal FLAG fusion, pcDNA3.1 vector); FLAG (C); made in house; host or cells: HEK293T/17 cells, transient triple transfection
T3 sequence (Q13131 whole entry, the tested form may be a part): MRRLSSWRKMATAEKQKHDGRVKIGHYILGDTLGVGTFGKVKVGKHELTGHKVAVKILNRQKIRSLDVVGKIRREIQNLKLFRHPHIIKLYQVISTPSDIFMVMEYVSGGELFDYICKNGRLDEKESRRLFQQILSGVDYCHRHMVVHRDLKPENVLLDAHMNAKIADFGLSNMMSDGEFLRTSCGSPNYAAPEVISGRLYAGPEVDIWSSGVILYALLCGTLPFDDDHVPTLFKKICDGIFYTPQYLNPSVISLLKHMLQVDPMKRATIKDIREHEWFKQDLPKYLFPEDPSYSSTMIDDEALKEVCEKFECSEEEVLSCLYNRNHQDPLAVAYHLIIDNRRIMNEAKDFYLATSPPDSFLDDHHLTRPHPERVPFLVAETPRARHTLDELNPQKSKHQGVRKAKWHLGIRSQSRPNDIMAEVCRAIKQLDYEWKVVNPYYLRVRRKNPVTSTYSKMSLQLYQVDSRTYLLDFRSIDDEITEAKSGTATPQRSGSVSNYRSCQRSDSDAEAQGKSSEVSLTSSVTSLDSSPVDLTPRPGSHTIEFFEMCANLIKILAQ
T3 sequence (O43741 whole entry, the tested form may be a part): as the sequence (O43741 whole entry, the tested form may be a part) above
T3 sequence (P54619 whole entry partner, the tested form may be a part): as the sequence (P54619 whole entry partner, the tested form may be a part) above
Excerpt: as §1, §2, §3

Row | Structure (SMILES) | cardiac hypertrophy ([1]; lean and diabetic animal models) | key disease hallmarks (systemic glucose clearance, glycaemic control) ([1]; rodent and non-human primate models of T2DM) | fold AMPK activation relative to vehicle [2] | fold AMPK activation relative to vehicle [3] | fold AMPK activation relative to vehicle [4]
1 | O[C@@H]1CO[C@H]2[C@@H]1OC[C@H]2Oc1nc2nc(-c3ccc(-c4ccccc4)cc3)c(Cl)cc2[nH]1 [MK-8722, reference compound] | reversible cardiac hypertrophy | robust improvements in key disease hallmarks |  |  | 
2 | CC(=O)NC1CC=C(c2ccc(-c3nc4nc(Oc5ccc(C)c(C(=O)O)c5)[nH]c4cc3Cl)cc2)CC1 (centres unmarked) [MSG011, 5-((5-(4′-Acetamido-2′,3′,4′,5′-tetrahydro-[1,1′-biphenyl]-4-yl)-6-chloro-1H-imidazo[4,5-b]pyridin-2-yl)oxy)-2-methylbenzoic acid] |  |  | > 2.2 fold | > 2.2 fold | > 2.2 fold
